According to patent US5476966A, “Method for depletion of glutathione” (Cornell Research Foundation, Inc., priority 1995, dated 1995):

Columns and labels:
[1] = system: V79 cells; details: cited from earlier work
[2] = system: glutathione; assay: Tissue glutathione after oral administration of sulfoximines (Table 5); assay type: in vivo, mouse; details: for % Decrease in glutathione / Glutathione level: 2 mmol/Kg oral
Protocol: Male mice (Swiss Webster) were fasted overnight (about 16 hr.) L-buthionine-SR-sulfoximine (BSO, S-n-butyl homocysteine-SR-sulfoximine), L-S-cyclohexylmethyl homocysteine-SR-sulfoximine (CHMSO); L-S-2-ethylbutylhomocysteine-SR-sulfoximine (2 EtBSO, L-S-2-ethylbutyl homocysteine-SR-sulfoximine, or saline (0.9% NaCl) were administered to mice at 2 mmol/Kg by intubation (100 mM; pH about 1 with HCl (200 mM). At the times indicated, plasma and tissues were obtained and assayed for glutathione (GSH+1/2 GSSG) as described by Anderson, Methods in Enzymology, 1985, 113:548-555. (See Table 4 and 5.)

[3] = system: Trypanosoma brucei; details: six mice treated, cited from earlier work
[4] = system: B16 melanomas; details: cited from earlier work

For `CCCCS(=N)(=O)CCC(N)C(=O)O` [BSO, L-S-butyl homocysteine-SR-sulfoximine], the oxygen enhancement ratio [1] is listed as “decrease of the oxygen enhancement ratio”, the sensitization to radiation ([1]; hypoxic conditions) is listed as “sensitization to radiation under hypoxic conditions” and the “decrease in brain glutathione levels” value ([2]; 2 mmol/kg, 12 hours, experimental error about 5%) is listed as about 20%. For the same compound, the “decrease in glutathione levels (cardio-toxicity)” value ([2]; 2 hours, 2 mmol/kg, mice) was 22%, the “% Decrease in glutathione” value ([2]; brain, 2 hr) was 0% and the Glutathione level ([2]; brain, 2 hr) was 2.17 µmol/g. For the same compound, the “% Decrease in glutathione” value ([2]; brain, 4 hr) was 10%, the Glutathione level ([2]; brain, 4 hr) was 1.95 µmol/g and the “% Decrease in glutathione” value ([2]; brain, 8 hr) was 12%. For the same compound, the Glutathione level ([2]; brain, 8 hr) was 2.04 µmol/g, the “% Decrease in glutathione” value ([2]; brain, 12 hr) was 18% and the Glutathione level ([2]; brain, 12 hr) was 1.64 µmol/g. For the same compound, the “% Decrease in glutathione” value ([2]; heart, 2 hr) was 22%, the Glutathione level ([2]; heart, 2 hr) was 0.86 µmol/g and the “% Decrease in glutathione” value ([2]; heart, 4 hr) was 17%. The Glutathione level ([2]; heart, 4 hr) was 0.91 µmol/g, the “% Decrease in glutathione” value ([2]; heart, 8 hr) was 36% and the Glutathione level ([2]; heart, 8 hr) was 0.65 µmol/g. The “% Decrease in glutathione” value ([2]; heart, 12 hr) was 49%, the Glutathione level ([2]; heart, 12 hr) was 0.58 µmol/g and the “% Decrease in glutathione” value ([2]; kidney, 2 hr) was 71%. For the same compound, the Glutathione level ([2]; kidney, 2 hr) was 0.81 µmol/g, the “% Decrease in glutathione” value ([2]; kidney, 4 hr) was 80% and the Glutathione level ([2]; kidney, 4 hr) was 0.57 µmol/g. The “% Decrease in glutathione” value ([2]; kidney, 8 hr) was 86%, the Glutathione level ([2]; kidney, 8 hr) was 0.44 µmol/g and the “% Decrease in glutathione” value ([2]; kidney, 12 hr) was 91%. The Glutathione level ([2]; kidney, 12 hr) was 0.30 µmol/g, the “% Decrease in glutathione” value ([2]; liver, 2 hr) was 71% and the Glutathione level ([2]; liver, 2 hr) was 1.50 µmol/g. For the same compound, the “% Decrease in glutathione” value ([2]; liver, 4 hr) was 87%, the Glutathione level ([2]; liver, 4 hr) was 0.70 µmol/g and the “% Decrease in glutathione” value ([2]; liver, 8 hr) was 89%. For the same compound, the Glutathione level ([2]; liver, 8 hr) was 0.60 µmol/g, the “% Decrease in glutathione” value ([2]; liver, 12 hr) was 85% and the Glutathione level ([2]; liver, 12 hr) was 0.73 µmol/g. For the same compound, the “% Decrease in glutathione” value ([2]; plasma, 2 hr) was 56%, the Glutathione level ([2]; plasma, 2 hr) was 9.8 µM and the “% Decrease in glutathione” value ([2]; plasma, 4 hr) was 68%. The Glutathione level ([2]; plasma, 4 hr) was 7.1 µM, the “% Decrease in glutathione” value ([2]; plasma, 8 hr) was 78% and the Glutathione level ([2]; plasma, 8 hr) was 5.1 µM. The “% Decrease in glutathione” value ([2]; plasma, 12 hr) was 77%, the Glutathione level ([2]; plasma, 12 hr) was 5.5 µM and the “cure of infected mice” value [3] was “two mice were apparently cured”. The “survival of infected mice” value ([3]; versus untreated infected controls) was “four mice survived significantly longer”, the longevity ([4]; BSO plus irradiation) was “significant increase in longevity” and the tumor size ([4]; BSO plus irradiation) was “significant decrease in tumor size”. The “tumor glutathione content relative to untreated controls” value ([4]; when irradiated, tumors in footpads of mice) was “about 20%”.
